Measurements: US4444767A, “Derivatives of 3-amino-pregn-5-ene” (Roussel Uclaf, priority 1981, dated 1984)
Where a name gives a salt, the structure may show the parent alone.

Legend:
immunitary systems = experiment: Test of Rosettes to sheep red corpuscles; type: in vivo; conditions: Rattus norvegicus, Splenocyte; 3 month old male rats, oral daily from day -1 to day 1; splenocytes after 7 days; read-out: immunostimulating dose (dose which multiplies by 2 the percentage of rosettes observed in the control animals)
Experimental: The administration to animals of a product capable of stimulating the immunitary systems leads to an increase of their capacity of reaction to the injection of a immunogenic product. 3 month old male rats were sensitized by intraperitoneal administration of sheep erythrocytoes on day 0 and 7 days later, the spleen was removed and splenocytes were placed in contact with sheep erythrocytes. The percentage of leucocytes around which the erythrocytes were in the form of rosettes was determined. The test compounds were orally administered daily from day-1 to day 1 and immunostimulating dose is the dose of product which multiplies by 2 the percentage of rosettes observed in the control animals.

mice = experiment: Acute toxicity; type: in vivo; conditions: oral

Row | Structure (SMILES) | ED (2-fold rosettes) (immunitary systems) | LD0 (maximum dose which did not cause any mortality after 8 days) (mice)
1 | CC(=O)[C@H]1CC[C@H]2[C@@H]3CC=C4C[C@H](NC(=O)[C@H](C)N)CC[C@]4(C)[C@H]3CC[C@]12C [Example 3, (2S)-2-amino-N-(20-oxopregn-5-ene 3α-yl)propionamide hydrochloride] | 2 mg/kg | > 400 mg/kg
2 | CC(=O)[C@H]1CC[C@H]2[C@@H]3CC=C4C[C@H](NC(=O)CN)CC[C@]4(C)[C@H]3CC[C@]12C [Example 4, 2-amino N-(20 oxopregn-5-ene 3α-yl) acetamide hydrochloride] | 5 mg/kg | 600 mg/kg
3 | C[C@H](O)[C@H]1CC[C@H]2[C@@H]3CC=C4C[C@H](NC(=O)CN)CC[C@]4(C)[C@H]3CC[C@]12C.Cl [Example 6, 2-amino-N-[(20S) 20-hydroxy-pregn-5-ene-3α-yl]-acetamide hydrochloride] | – | > 400 mg/kg
